We go through 15 molecules from publication PMC8667942 (Journal of Enzyme Inhibition and Medicinal Chemistry, 2021).

The target of data set [1] is T1, recombinant microsomal CYP3A4 (Homo sapiens, UniProt P08684).
T1 construct: purchased Invitrogen P2858; host or cells: BACULOSOMES (microsomes of baculovirus-infected insect cells: own knowledge of the product)
Put plainly: In vitro CYP450 activity assay (Vivid CYP450 Blue screening kit, BOMCC). It counts as in vitro ADME. Particulars: recombinant CYP3A4, 100 nM treatment for 10 min, mean ± SEM.
Description: The activity of CYP3A4 was measured using the Vivid® CYP450 Blue screening kit (Cat No. P2858 for 3A4, Invitrogen). […] The system consisted of 100 μL of the final volume. The CYP450 substrate Vivid BOMCC and positive control inhibitor (ketoconazole), were dissolved in acetonitrile. […] The mixture containing test drugs, Vivid® CYP450 BACULOSOMES reagent, and Vivid® Regeneration system (Total 90 μL) was dispensed into a 96-well black plate and incubated at room temperature for 20 min. After adding 10 μL of Vivid® CYP450 reaction buffer (100 μM NADP, 10 μM Vivid® BOMCC), the mixture was incubated for 10 min at room temperature. […] The CYP450 3A4 inhibitory efficiency (%) of the test drug was calculated by comparing the reaction rates of the test compounds with the reaction rate of the positive control group (Ketoconazole) and the negative control group (0.1% Acetonitrile, 0.1% DMSO) using the measured fluorescence values.

Another data set deals with purified CYP3A4 (Homo sapiens, UniProt P08684). As to the kind of experiment: Spectral binding titration of purified CYP3A4. As to conditions: 1 µM purified CYP3A4, pH 7.4, no binding = no spectral change up to 200 μM; for Kd: read-out: CYP3A4 Kd (spectral dissociation constant).
Sequence of purified CYP3A4 (P08684 whole entry): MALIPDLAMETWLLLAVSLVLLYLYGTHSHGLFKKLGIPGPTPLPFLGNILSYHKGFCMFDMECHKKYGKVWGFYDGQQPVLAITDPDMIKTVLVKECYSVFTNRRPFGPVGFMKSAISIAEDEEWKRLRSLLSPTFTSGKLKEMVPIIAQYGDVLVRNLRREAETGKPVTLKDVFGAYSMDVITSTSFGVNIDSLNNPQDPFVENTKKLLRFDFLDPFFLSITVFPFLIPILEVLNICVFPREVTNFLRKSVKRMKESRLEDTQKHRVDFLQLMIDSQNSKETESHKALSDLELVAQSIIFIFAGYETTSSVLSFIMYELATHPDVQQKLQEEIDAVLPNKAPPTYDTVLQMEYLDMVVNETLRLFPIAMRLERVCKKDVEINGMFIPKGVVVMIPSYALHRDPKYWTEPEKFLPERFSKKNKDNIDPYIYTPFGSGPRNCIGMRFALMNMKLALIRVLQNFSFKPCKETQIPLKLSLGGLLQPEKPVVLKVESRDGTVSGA
In another data set the target is T2, human IP6K2 (Homo sapiens, UniProt Q9UHH9).
T2 construct: made in house; host or cells: Sf9 insect cells (baculovirus)
T2 sequence (Q9UHH9 1-426): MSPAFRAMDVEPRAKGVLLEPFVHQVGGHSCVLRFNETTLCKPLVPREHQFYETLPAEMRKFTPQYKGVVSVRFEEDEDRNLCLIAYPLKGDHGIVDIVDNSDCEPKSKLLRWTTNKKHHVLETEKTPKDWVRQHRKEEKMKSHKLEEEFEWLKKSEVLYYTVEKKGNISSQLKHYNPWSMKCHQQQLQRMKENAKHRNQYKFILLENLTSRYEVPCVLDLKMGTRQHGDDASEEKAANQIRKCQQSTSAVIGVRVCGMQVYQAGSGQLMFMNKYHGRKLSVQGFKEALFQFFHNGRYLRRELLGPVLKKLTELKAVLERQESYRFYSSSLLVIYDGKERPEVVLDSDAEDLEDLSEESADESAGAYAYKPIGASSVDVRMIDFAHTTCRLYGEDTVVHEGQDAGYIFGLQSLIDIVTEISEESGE
As to the kind of experiment: IP6K2 inhibition assay (ADP Glo kinase assay). It counts as biochemical. Particulars: purified human IP6K2, 10 μM IP6, 10 μM ATP, 8-dose, triplicate, mean ± SEM. On the procedure: Full-length human IP6K2 cDNA was subcloned into pFASTBAC1 plasmid (Gibco) with an N-terminal FLAG epitope sequence, and baculovirus was generated according to the manufacturer’s instructions. Sf9 insect cells were infected with baculovirus and incubated for 72 h. The cells were resuspended in lysis buffer [20 mM Tris–HCl (pH 7.9), 500 mM NaCl, 4 mM MgCl2, 0.4 mM EDTA, 2 mM DTT, 20% glycerol, 1 mM PMSF, and protease inhibitor cocktail (Roche)] and then disrupted with a Dounce homogeniser (pestle A, 3 series of 10 strokes with 10 min interval).
IP6K2 activity was measured using ADP Glo assay kit (Promega). All kinase assays were performed in low volume 384-well white plates (784075, Greiner-bioone) with a final volume of 5 μL. The reaction buffer contained 2 ng Flag-hIP6K2, 10 μM IP6, and 10 μM ATP in kinase buffer (50 mM Tris, 10 mM MgCl2, 2.5 mM DTT, 0.02% Triton-X-100, pH 6.8)[26]. For dose-dependent inhibition assay, 8 serial 2-fold dilutions of test compounds were prepared in DMSO. The final DMSO concentration was 5% in each reaction. The test compounds (5X, 25% DMSO in 1X kinase buffer) were dispensed to each well, and 2.5 X IP6K2 in kinase buffer were added. After 15 min incubation at room temperature, 2.5 X concentrations of IP6 and ATP were added to the plate. The reaction plate was incubated in a 37 °C incubator for 30 min. Next, the reactions were quenched with 5 μL of ADP Glo reagent for 40 min to deplete the remaining ATP. To convert the remaining ADP to ATP, 10 μl of detection reagent were added and incubated for 30–60 min. The luminescence of the final reactants was measured using the Mithras LB940 plate reader from Berthold. Samples were run in triplicate and the activity (%) was calculated using the following equations; Activity (%) = 100 × (μexperimental–μnegative)/(μpositive–μnegative). Negative control was DSMO-treated reaction. IC50 value was estimated using a logistic regression model with R package.

Data set [2] relates to IP7 synthesis in HCT116 cells. As to the kind of experiment: Quantification of intracellular inositol phosphates by HPLC in radiolabeled HCT116. Particulars: HCT116, 50 μM, 4 h. It counts as cell-based, human. On the procedure:
For HPLC analysis, 2 × 10^5 cells/60 mm dish of HCT116 were treated with 75 μCi [^3H] myo-inositol (NET1177001MC, PerkinElmer). After 3 days, soluble inositol polyphosphates from HCT116 (human colorectal cancer cell line) were extracted and analysed as previously described. Intracellular inositol phosphates were extracted with acid extraction buffer (1 M HClO4, 3 mM EDTA, and 0.1 mg/ml1 IP6), and neutralised with neutralisation buffer (1 M K2CO3 and 3 mM EDTA). The lysates were centrifuged for 10 min, and the soluble fraction was resolved by HPLC as described earlier. The lipid pellet was lysed with 0.1% Triton X-100 in NaOH overnight. Each fraction was mixed with Ultima-Flo AP liquid scintillation cocktail (6013599, PerkinElmer), and radioactivity was counted in a scintillation counter. Quantity of inositol phosphates was presented as total counts/min (CPM) normalised by total lipid contents.

Data set [3] deals with Akt phosphorylation at Thr308 in HCT116 cells. Put plainly: AKT activation in HCT116 cells (Western blot). Particulars: HCT116, 50 μM, 4 h, pAkt/Akt by Western blot. In kind it is cell-based, human. The procedure:
Total proteins were quantified by bicinchoninic acid assay (23225, Thermo Fisher Scientific). Total 20 μg proteins were resolved in 8% SDS–PAGE, and then Akt phosphorylation was probed with primary antibodies against, phospho–Akt (Thr308) (4056) and Akt (9272) (Cell Signalling) and HRP-conjugated secondary antibody. The relative band intensities of Akt phosphorylation to total Akt were quantified with Image J software.
(In western blotting, separated proteins are transferred to a membrane and probed.)

Molecules are shown by their SMILES. Where “and” joins values, the source holds several entries; their conditions need not be identical. Equal entries are not always repeated. Entries after “also recorded” stand apart in the source; their conditions may differ.

T1 sequence (P08684 whole entry): as the sequence (P08684 whole entry) above
Description for purified CYP3A4: Purified CYP3A4 enzymes were diluted to 1 µM in 100 mM potassium phosphate buffer (pH 7.4) and then divided into two glass cuvettes. […] The binding titration was analysed using GraphPad Prism software (GraphPad, Inc., La Jolla, CA, USA).

On to `O=[N+]([O-])c1ccc(CNc2nc(NCc3cccnc3)c3nc[nH]c3n2)cc1` [Compound 13, N^2-(4-nitrobenzyl)-N^6-(pyridin-3-ylmethyl)-9H-purine-2,6-diamine], for which the melting point (in general, the temperature of the solid-liquid transition) worked out at 251 °C. Further, the “Relative 3A4 inhibition (% of TNP)” value in data set [1] is 126 ± 1 % of TNP. Besides, on purified CYP3A4, the Kd (as a rule, a measure of binding affinity in units of concentration) was determined as 2 ± 0.5 µM. The half-maximal inhibitory concentration (IC50) – broadly, the concentration needed to halve the response being measured – on human IP6K2 came out at 3.3 ± 0.8 µM.
Take `Clc1ccc(CNc2nc(NCc3cccnc3)c3nc[nH]c3n2)cc1` [Compound 12, N^2-(4-chlorobenzyl)-N^6-(pyridin-3-ylmethyl)-9H-purine-2,6-diamine]: the Kd on purified CYP3A4 was found to be 1.8 ± 0.6 µM.
On to `FC(F)(F)c1cccc(CNc2nc(NCc3cccnc3)c3nc[nH]c3n2)c1` [Compound 10, N^6-(pyridin-3-ylmethyl)-N^2-(3-(trifluoromethyl)benzyl)-9H-purine-2,6-diamine], for which the Kd on purified CYP3A4 was found to be 1.4 ± 0.5 µM. Also, the IC50 against human IP6K2 was determined as 5.3 ± 0.3 µM.
`Clc1ccc(CNc2nc(NCc3nc4ccccc4[nH]3)c3nc[nH]c3n2)cc1` [Compound 19, N^6-((1H-benzo[d]imidazol-2-yl)methyl)-N^2-(4-chlorobenzyl)-9H-purine-2,6-diamine] returned a melting point of 160 °C. Further, the “Relative 3A4 inhibition (% of TNP)” value in data set [1] is 120 ± 0.66 % of TNP. Also, on purified CYP3A4, the Kd amounted to 16.9 ± 3.7 µM. On human IP6K2, this molecule returned an IC50 of 19.3 ± 0.27 µM.
Take `CS(=O)(=O)c1ccc(CNc2nc(NCc3ccc(F)cc3)nc3[nH]cnc23)cc1` [Compound 7, N^2-(4-fluorobenzyl)-N^6-(4-(methylsulfonyl)benzyl)-9H-purine-2,6-diamine]: the dissociation constant Kd at purified CYP3A4 came out at 28.8 ± 2.7 µM. For the same molecule, at human IP6K2, half-maximal inhibition (IC50) was put at 7.3 ± 0.5 µM.
As to `Fc1ccc(CNc2nc(NCc3ncc[nH]3)c3nc[nH]c3n2)cc1` [Compound 15, N^6-((1H-imidazol-2-yl)methyl)-N^2-(4-fluorobenzyl)-9H-purine-2,6-diamine], at purified CYP3A4, the “CYP3A4 Kd (spectral dissociation constant)” value (“CYP3A4 Kd” below) is “did not display any binding spectral change; also recorded: without binding to CYP3A4; also recorded: No binding^d”. Also, at human IP6K2, the IC50 came out at 24.7 ± 0.2 µM. Also, in data set [2], the “IP4, IP5, and IP6 levels” value was “without notable changes”; the “cellular IP7 synthesis (effect in words)” value is given as “reduced cellular IP7 synthesis”. For the same molecule, in data set [3], the “increase in Akt phosphorylation at Thr308 compared to vehicle treatment” value (shortened to “increase in Akt phosphorylation”) is “more than 1.5 fold”.
Regarding `FC(F)(F)c1cccc(CNc2nc(NCc3ncc[nH]3)c3nc[nH]c3n2)c1` [Compound 14, N^6-((1H-imidazol-2-yl)methyl)-N^2-(3-(trifluoromethyl)benzyl)-9H-purine-2,6-diamine], the equilibrium dissociation constant (Kd) at purified CYP3A4 was 22.2 ± 4.5 µM. On human IP6K2, this molecule showed an IC50 of 34.7 ± 0.7 µM.
For `Fc1ccc(CNc2nc(NCc3cccnc3)c3nc[nH]c3n2)cc1` [Compound 11, N^2-(4-fluorobenzyl)-N^6-(pyridin-3-ylmethyl)-9H-purine-2,6-diamine] the same measures were 3 ± 0.6 µM and 5.9 ± 0.2 µM.
The matching figures for `Clc1ccc(CNc2nc(NCc3ncc[nH]3)c3nc[nH]c3n2)cc1` [Compound 16, N^6-((1H-imidazol-2-yl)methyl)-N^2-(4-chlorobenzyl)-9H-purine-2,6-diamine]: 40.5 ± 8 µM and 19.9 ± 0.1 µM.
The molecule `O=[N+]([O-])c1ccc(CNc2nc(NCc3nc4ccccc4[nH]3)c3nc[nH]c3n2)cc1` [Compound 20, N^6-((1H-benzo[d]imidazol-2-yl)methyl)-N^2-(4-nitrobenzyl)-9H-purine-2,6-diamine] displayed a melting point of 153 °C. Besides, the “Relative 3A4 inhibition (% of TNP)” value in data set [1] was 65.7 ± 1.97 % of TNP. The “CYP3A4 Kd” value on purified CYP3A4 is “did not show any spectral dissociation constant value; also recorded: without binding to CYP3A4; also recorded: No binding^d”. The IC50 on human IP6K2 stood at 21.8 ± 0.3 µM. In data set [2], the “IP4, IP5, and IP6 levels” value is listed as “without notable changes”; the “cellular IP7 synthesis (effect in words)” value was “reduced cellular IP7 synthesis”. Besides, the “increase in Akt phosphorylation” value in data set [3] was “more than 1.5 fold”.
Take `CS(=O)(=O)c1ccc(CNc2nc(NCc3ccc(Cl)cc3)nc3[nH]cnc23)cc1` [Compound 8, N^2-(4-chlorobenzyl)-N^6-(4-(methylsulfonyl)benzyl)-9H-purine-2,6-diamine]: the Kd on purified CYP3A4 worked out at 14.4 ± 3.3 µM.
As for `CS(=O)(=O)c1ccc(CNc2nc(NCc3ccc([N+](=O)[O-])cc3)nc3[nH]cnc23)cc1` [Compound 9, N^6-(4-(methylsulfonyl)benzyl)-N^2-(4-nitrobenzyl)-9H-purine-2,6-diamine], the “CYP3A4 Kd” value at purified CYP3A4 is reported as “did not show any binding spectral change; also recorded: without binding to CYP3A4; also recorded: No binding^d”. In addition, on human IP6K2, the IC50 was 16 µM and 16.8 µM. In data set [2], the “IP4, IP5, and IP6 levels” value was “without notable changes”; the “cellular IP7 synthesis (effect in words)” value is on record as “reduced cellular IP7 synthesis”; the “decrease of cellular IP7 synthesis compared to DMSO” value was approximately 44%. Further, in data set [3], the “increase in Akt phosphorylation” value is given as “more than 1.5 fold”.
Turning to `CS(=O)(=O)c1ccc(CNc2nc(NCc3cccc(C(F)(F)F)c3)nc3[nH]cnc23)cc1` [Compound 6, N^6-(4-(methylsulfonyl)benzyl)-N^2-(3-(trifluoromethyl)benzyl)-9H-purine-2,6-diamine], the Kd at purified CYP3A4 is 24.8 ± 4.3 µM. This molecule had an IC50 on human IP6K2 of 4.6 ± 0.2 µM.
As to `FC(F)(F)c1cccc(CNc2nc(NCc3nc4ccccc4[nH]3)c3nc[nH]c3n2)c1` [Compound 17, N^6-((1H-benzo[d]imidazol-2-yl)methyl)-N^2-(3-(trifluoromethyl)benzyl)-9H-purine-2,6-diamine], the melting point turned out to be 289 °C. In addition, the “Relative 3A4 inhibition (% of TNP)” value in data set [1] is reported as 116 ± 3 % of TNP. Besides, the Kd on purified CYP3A4 was found to be 7.9 ± 0.8 µM. Further, half-maximal inhibition against human IP6K2 (IC50) was put at 12.6 ± 0.4 µM.
For `Fc1ccc(CNc2nc(NCc3nc4ccccc4[nH]3)c3nc[nH]c3n2)cc1` [Compound 18, N^6-((1H-benzo[d]imidazol-2-yl)methyl)-N^2-(4-fluorobenzyl)-9H-purine-2,6-diamine] the same measures were 287 °C, 120 ± 1 % of TNP, 11.1 ± 1 µM and 13.2 ± 0.4 µM.
